Results: patent US11999737B2, “Kinase inhibitors and related methods of use” (Duke University, priority 2014, dated 2024)

How the values were obtained:
PIM3-GFP = PIM3-GFP (Homo sapiens, UniProt Q86V86); test: FLECS elution of PIM3-GFP from γ-linked ATP Sepharose media; type: binding; settings: titration from ATP Sepharose; calculated from EC50; read-out: apparent Kd, elution of PIM3-GFP
GFP-ZIPK = GFP-ZIPK (Homo sapiens, UniProt O43293); test: FLECS elution of GFP-ZIPK from γ-linked ATP Sepharose media; type: binding; settings: titration from ATP Sepharose
Sequence of GFP-ZIPK (O43293 whole entry): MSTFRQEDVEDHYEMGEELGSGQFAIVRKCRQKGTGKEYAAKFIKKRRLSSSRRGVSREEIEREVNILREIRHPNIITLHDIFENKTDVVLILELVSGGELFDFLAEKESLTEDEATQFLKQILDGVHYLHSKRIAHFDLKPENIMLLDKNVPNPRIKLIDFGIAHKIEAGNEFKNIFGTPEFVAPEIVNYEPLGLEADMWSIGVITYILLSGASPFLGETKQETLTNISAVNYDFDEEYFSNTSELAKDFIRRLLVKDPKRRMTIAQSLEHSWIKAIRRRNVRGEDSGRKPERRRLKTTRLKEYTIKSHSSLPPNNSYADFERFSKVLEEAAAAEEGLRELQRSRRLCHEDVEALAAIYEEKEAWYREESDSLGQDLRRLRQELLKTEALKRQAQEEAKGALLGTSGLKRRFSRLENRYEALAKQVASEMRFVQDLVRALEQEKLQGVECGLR

Kd (PIM3-GFP): 0.201 µM
elution of full length GFP-ZIPK (GFP-ZIPK): failed to elute
Compound: O=S(=O)(c1cccc2c(I)cccc12)N1CCCNCC1 [ML-7, reference compound]
